The values below come from patent publication US20240059703A1 (AMGEN INC., priority 2021, published 2024).

KRAS G12C, sequence (P01116 other isoform, or with tags, fused parts or gaps G12C/C118A): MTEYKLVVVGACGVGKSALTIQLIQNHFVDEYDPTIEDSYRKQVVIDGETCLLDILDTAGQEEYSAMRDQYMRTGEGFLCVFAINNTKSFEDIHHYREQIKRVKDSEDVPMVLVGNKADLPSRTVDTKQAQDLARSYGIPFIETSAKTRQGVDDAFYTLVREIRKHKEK

This assay deals with KRAS G12C (Homo sapiens (Human), UniProt P01116, C118A/G12C). Description: 2 h coupled exchange assay. It is filed as biochemical. The settings on record: Avg 2 h Coupled exchange IC50, 2 h compound pre-incubation, SOS-mediated nucleotide exchange. Here is the method:
The term “2 h coupled exchange assay” or “20 h coupled exchange assay” as used herein refers to the assay described in the Section entitled “BIOLOGICAL EVALUATION.”
`C=CC(=O)N1CC2(CCN(c3nc4c(c(-c5c(C)c(Cl)cc6cnn(C)c56)c3Cl)COC(C)(C)C4)C2)C1` (single isomer, unassigned) [Example 2-91, (P)-1-(6-(3-chloro-4-(5-chloro-1,6-dimethyl-1H-indazol-7-yl)-7,7-dimethyl-7,8-dihydro-5H-pyrano[4,3-b]pyridin-2-yl)-2,6-diazaspiro[3.4]octan-2-yl)-2-propen-1-one] returned an IC50 of 2.89 µM.
With `C=CC(=O)N1CC2(CCN(c3cc4c(c(-c5c(C)ccc6[nH]ncc56)c3C#N)COCC4)C2)C1` (single isomer, unassigned) [Example 2-99, (M)-8-(5-methyl-1H-indazol-4-yl)-6-(2-(2-propenoyl)-2,6-diazaspiro[3.4]octan-6-yl)-3,4-dihydro-1H-2-benzopyran-7-carbonitrile] the figure was 4.39 µM; with `C=CC(=O)N1CC2(CCN(c3nc4c(c(-c5c(C)c(Cl)cc6[nH]ncc56)c3Cl)COC(C)(C)C4)C2)C1` (single isomer, unassigned) [Example 2-108, (M)-1-(6-(3-chloro-4-(6-chloro-5-methyl-1H-indazol-4-yl)-7,7-dimethyl-7,8-dihydro-5H-pyrano[4,3-b]pyridin-2-yl)-2,6-diazaspiro[3.4]octan-2-yl)-2-propen-1-one], 14.1 µM; with `C=CC(=O)N1CC2(CCN(c3nc4c(c(-c5cc(Cl)cc6ccn(C)c56)c3C#N)COC(C)(C)C4)C2)C1` (single isomer, unassigned) [Example 12-9, (P)-4-(5-chloro-1-methyl-1H-indol-7-yl)-7,7-dimethyl-2-(2-(2-propenoyl)-2,6-diazaspiro[3.4]octan-6-yl)-7,8-dihydro-5H-pyrano[4,3-b]pyridine-3-carbonitrile], 0.443 µM.
The value for `C=CC(=O)N1CC2(CCN(c3nc4c(c(-c5cc(Cl)cc6ccn(C)c56)c3C#N)COC(C)(C)C4)C2)C1` (single isomer, unassigned) [Example 12-10, (M)-4-(5-chloro-1-methyl-1H-indol-7-yl)-7,7-dimethyl-2-(2-(2-propenoyl)-2,6-diazaspiro[3.4]octan-6-yl)-7,8-dihydro-5H-pyrano[4,3-b]pyridine-3-carbonitrile] was 7.42 µM; that for `C=CC(=O)N1CC2(CCN(c3nc4c(c(-c5c(C)c(Cl)cc6cnn(C)c56)c3C)CCN(C(C)C)C4)C2)C1` (single isomer, unassigned) [Example 12-23, (P)-1-(6-(4-(5-chloro-1,6-dimethyl-1H-indazol-7-yl)-3-methyl-7-(2-propanyl)-5,6,7,8-tetrahydro-1,7-naphthyridin-2-yl)-2,6-diazaspiro[3.4]octan-2-yl)-2-propen-1-one] was 18.7 µM; that for `C=CC(=O)N1CC2(CCN(c3nc4c(c(-c5c(C)c(Cl)cc6cnn(C)c56)c3C)CCN(C(C)C)C4)C2)C1` (single isomer, unassigned) [Example 12-24, (M)-1-(6-(4-(5-chloro-1,6-dimethyl-1H-indazol-7-yl)-3-methyl-7-(2-propanyl)-5,6,7,8-tetrahydro-1,7-naphthyridin-2-yl)-2,6-diazaspiro[3.4]octan-2-yl)-2-propen-1-one] was 0.05 µM.
Regarding `C=CC(=O)N1CC2(CCN(c3nc4c(c(-c5c(F)cccc5[C@H](C)O)c3C#N)C[C@H]3C[C@@H]4C3(C)C)C2)C1` (single isomer, unassigned) [Example 12-36], 0.441 µM corresponded to half-maximal inhibition (IC50).
`C=CC(=O)N1CC2(CCN(c3nc4c(c(-c5c(F)cccc5[C@@H](C)O)c3C#N)C[C@H]3C[C@@H]4C3(C)C)C2)C1` (single isomer, unassigned) [Example 12-37] gave an IC50 of 1.44 µM.
The value for `C=CC(=O)N1CC2(CCN(c3nc4c(c(-c5cc(O)cc6nccnc56)c3C#N)C[C@H]3C[C@@H]4C3(C)C)C2)C1` (single isomer, unassigned) [Example 12-39] was 3.9 µM.
For `C=CC(=O)N1CC2(CCN(c3nc4c(c(-c5cc(O)cc(Cl)c5C)c3C)COC(C)(C)C4)C2)C1` (single isomer, unassigned) [Example 12-44, (P)-1-(6-(4-(3-chloro-5-hydroxy-2-methylphenyl)-3,7,7-trimethyl-7,8-dihydro-5H-pyrano[4,3-b]pyridin-2-yl)-2,6-diazaspiro[3.4]octan-2-yl)prop-2-en-1-one], the IC50 was 11 µM.
The value for `C=CC(=O)N1CC2(CCN(c3nc4c(c(-c5c(C)ccc6cnn(C)c56)c3C#N)CC(C)(C)C4)C2)C1` (single isomer, unassigned) [Example 13-17, (M)-4-(1,6-dimethyl-1H-indazol-7-yl)-6,6-dimethyl-2-(2-(2-propenoyl)-2,6-diazaspiro[3.4]octan-6-yl)-6,7-dihydro-5H-cyclopenta[b]pyridine-3-carbonitrile] was 19.9 µM.
In turn, `C=CC(=O)N1CC2(CCN(c3nc4c(c(-c5ccccc5Cl)c3C#N)CC(C)(C)C4)C2)C1` (single isomer, unassigned) [Example 13-24, (M)-4-(2-chlorophenyl)-6,6-dimethyl-2-(2-(2-propenoyl)-2,6-diazaspiro[3.4]octan-6-yl)-6,7-dihydro-5H-cyclopenta[b]pyridine-3-carbonitrile] showed an IC50 of 1.8 µM.
The value for `C=CC(=O)N1CC2(CCN(c3nc4c(c(-c5ccccc5Cl)c3C#N)CC(C)(C)C4)C2)C1` (single isomer, unassigned) [Example 13-25, (P)-4-(2-chlorophenyl)-6,6-dimethyl-2-(2-(2-propenoyl)-2,6-diazaspiro[3.4]octan-6-yl)-6,7-dihydro-5H-cyclopenta[b]pyridine-3-carbonitrile] was 0.337 µM; that for `C=CC(=O)N1CC2(CCN(c3nc4c(c(-c5ccnn5C)c3C#N)CC[C@H](c3ccnn3C)C4)C2)C1` (single isomer, unassigned) [Example 13-28] was 0.266 µM; that for `C=CC(=O)N1CC2(CCN(c3nc4c(c(-c5ccnn5C)c3C#N)CC[C@@H](c3ccnn3C)C4)C2)C1` (single isomer, unassigned) [Example 13-29] was 0.217 µM.
With `C=CC(=O)N1CC2(CCN(c3nc4c(c(-c5c(C)ccc6cnn(C)c56)c3C#N)C[C@H]3C[C@@H]4C3)[C@H]2C)C1` (single isomer, unassigned) [Example 13-31] the figure was 0.652 µM; with `C=CC(=O)N1CC2(CCN(c3nc4c(c(-c5c(C)ccc6cnn(C)c56)c3C#N)C[C@H]3C[C@@H]4C3)[C@H]2C)C1` (single isomer, unassigned) [Example 13-32], 64.9 µM; with `C=CC(=O)N1CC2(CCN(c3nc4c(c(-c5c(O)ccc6ccccc56)c3C#N)C[C@H]3C[C@@H]4C3)C2)C1` (single isomer, unassigned) [Example 13-36], 0.991 µM.
The value for `C=CC(=O)N1CC2(CCN(c3nc4c(c(-c5c(O)ccc6ccccc56)c3C#N)C[C@H]3C[C@@H]4C3)C2)C1` (single isomer, unassigned) [Example 13-37] was 31.7 µM; that for `C=CC(=O)N1CC2(CCN(c3nc4c(c(-c5c(C)cccc5O)c3C#N)C[C@H]3C[C@@H]4C3)C2)C1` (single isomer, unassigned) [Example 13-39] was 0.639 µM.
Turning to `C=CC(=O)N1CC2(CCN(c3nc4c(c(-c5c(C)cccc5O)c3C#N)C[C@H]3C[C@@H]4C3)C2)C1` (single isomer, unassigned) [Example 13-40], the half-maximal inhibitory concentration (IC50) worked out at 34.1 µM.
With `C=CC(=O)N1CC2(CCN(c3nc4c(c(-c5cc(O)cc6ccccc56)c3C#N)COC(C)(C)C4)C2)C1` (single isomer, unassigned) [Example 13-42, (M)-4-(3-hydroxy-1-naphthalenyl)-7,7-dimethyl-2-(2-(2-propenoyl)-2,6-diazaspiro[3.4]octan-6-yl)-7,8-dihydro-5H-pyrano[4,3-b]pyridine-3-carbonitrile] the figure was 23.3 µM; with `C=CC(=O)N1CC2(CCN(c3nc4c(c(-c5c(C)ccc6cnn(C)c56)c3C#N)COC4(C)C)C2)C1` (single isomer, unassigned) [Example 13-56, (P)-4-(1,6-dimethyl-1H-indazol-7-yl)-,7,7-dimethyl-2-(2-(2-propenoyl)-2,6-diazaspiro[3.4]octan-6-yl)-5,7-dihydrofuro[3,4-b]pyridine-3-carbonitrile], 141 µM; with `C=CC(=O)N1CC2(CCN(c3nc4c(c(-c5c(C)ccc6cnn(C)c56)c3C#N)COC4(C)C)C2)C1` (single isomer, unassigned) [Example 13-57, (M)-4-(1,6-dimethyl-1H-indazol-7-yl)-7,7-dimethyl-2-(2-(2-propenoyl)-2,6-diazaspiro[3.4]octan-6-yl)-5,7-dihydrofuro[3,4-b]pridine-3-carbonitrile], 0.361 µM.
With `C=CC(=O)N1CC2(CCN(c3nc4c(c(-c5c(C)ccc6cnn(C)c56)c3C#N)COC(C)(C)C4)C2)C1` (single isomer, unassigned) [Example 13-59, (M)-4-(1,6-dimethyl-1H-indazol-7-yl)-7,7-dimethyl-2-(2-(2-propenoyl)-2,6-diazaspiro[3.4]octan-6-yl)-7,8-dihydro-5H-pyrano[4,3-b]pyridine-3-carbonitrile] the figure was 32.2 µM.
With `C=CC(=O)N1CC2(CCN(c3nc4c(c(-c5c(O)cccc5Cl)c3C#N)C[C@H]3C[C@@H]4C3)C2)C1` (single isomer, unassigned) [Example 13-66] the figure was 76 µM.
Compound `C=CC(=O)N1CC2(CCN(c3nc4c(c(-c5c(O)cccc5Cl)c3C#N)C[C@H]3C[C@@H]4C3)C2)C1` (single isomer, unassigned) [Example 13-67] came in with an IC50 of 0.506 µM.
The value for `C=CC(=O)N1CC2(CCN(c3nc4c(c(-c5cc(O)cc6ccccc56)c3C#N)CC(C)(C)C4)C2)C1` (single isomer, unassigned) [Example 13-68, (M)-4-(3-hydroxy-1 naphthalenyl)-6,6-dimethyl-2-(2-(2-propenoyl)-2,6-diazaspiro[3.4]octan-6-yl)-6,7-dihydro-5H-cyclopenta[b]pyridine-3-carbonitrile] was 27 µM; that for `C=CC(=O)N1CC2(CCN(c3nc4c(c(-c5cc(O)c(F)c6ccccc56)c3C#N)CC[C@H]3C[C@@H]43)C2)C1` (single isomer, unassigned) [Example 13-73] was 19.3 µM.

In general, IC50 refers to the concentration that inhibits the measured activity by half. Low values mean inhibition by little substance, high ones a need for much substance.
